Article PMC2939913 (Journal of medicinal chemistry, 2010)
“And” between values parts separate entries of the source, which are not always exact repeats. Identical values can stand only once. Blank lines part the entries; values can stand above or below the compound they belong to.

Legend:
P. falciparum D6 (CQS) = assay: Inhibition of P. falciparum growth; type: cell-based; conditions: Plasmodium falciparum, D6, 72 h, read-out: IC50 (nM) for P. falciparum D6
P. falciparum Dd2 (CQR) = assay: Inhibition of P. falciparum growth; type: cell-based; conditions: Plasmodium falciparum, DD2, 72 h, read-out: IC50 (nM) for P. falciparum Dd2
[1] = tested on: CQS D6-infected RBCs (P. falciparum); assay: Accumulation experiment in parasitized red blood cells, D6; type: cell-based; conditions: for Uptake: by 6 × 10^7 PRBCs after 1 hour of incubation, initial medium ∼ 5 µM, ±5%
[2] = tested on: CQR Dd2-infected RBCs (P. falciparum); assay: Accumulation experiment in parasitized red blood cells, Dd2; type: cell-based; conditions: for Uptake: by 6 × 10^7 PRBCs after 1 hour of incubation, initial medium ∼ 5 µM, ±5%
[3] = General cytotoxicity, mitogen-stimulated murine spleenic lymphocytes; type: cell-based; conditions: mouse, mitogen-stimulated murine splenic lymphocytes
β-hematin = β-hematin inhibition; type: biochemical; conditions: for IC50: read-out: β-hematin inhibition, 40 µM heme, acetate pH 4.8, Tween20, 24 hours at 37°C
[4] = tested on: hemozoin production in D6 P. falciparum; assay: Hemozoin inhibition in cell culture; type: cell-based; conditions: 24 hours
[5] = tested on: hemozoin production in Dd2 P. falciparum; assay: Hemozoin inhibition in cell culture; type: cell-based
P. berghei = assay: Mouse efficacy against P. berghei; conditions: for Mouse survival (days): 1 × 30 mg/kg
[6] = Signs of toxicity when administered to mice; type: in vivo; conditions: administered to mice in the P. berghei experiments
[7] = Heme-drug binding by optical titration; conditions: apparent; 2:1 heme to drug stoichiometry; 5 µM heme, phosphate buffer pH 5.7
[8] = [concentration in DV / concentration in medium]

SMILES: CCN(CC)CCCC(C)Nc1ccnc2cc(Cl)ccc12 (stereo not shown) [CQ, chloroquine, reference compound]
- IC50 (P. falciparum D6 (CQS)): 6.9 nM
- IC50 (P. falciparum Dd2 (CQR)): 102 nM
- Uptake [1]: 7e-09 mol
- Uptake [2]: 5e-09 mol

SMILES: CN(CCCNc1ccnc2cc(Cl)ccc12)CCCN1c2ccccc2CCc2ccccc21 [Compound 1]
- IC50 [3]: 0.7 µM
- Accumulation ratio [1, 8]: 32,000
- Uptake [1]: 1.6e-08 mol
- increase of DV concentration over initial medium concentration ([1]; initial medium concentration ∼ 5 µM): 13,000 fold
- Accumulation ratio [2, 8]: 38,000
- Uptake [2]: 1.8e-08 mol
- IC50 (β-hematin): 9 µM
- hemozoin formation by microscopy ([4]; 100 nM drug): some hemozoin present
- hemozoin formation by microscopy ([5]; 100 nM drug, 24 hours (not shown)): also the case
- Mouse survival (days) (P. berghei; oral): Mice euthanized day 3

SMILES: Clc1ccc2c(NCCN3CCN(C(c4ccccc4)c4ccccc4)CC3)ccnc2c1 [Compound 4, N-(2-(4-Benzhydrylpiperazin-1-yl)ethyl)-7-chloroquinolin-4-amine]
- IC50 [3]: 1.9 µM
- IC50 (β-hematin): 2.5 µM
- Mouse survival (days) (P. berghei; subcutaneous): Mice euthanized day 3
- increase in survival days compared to control animals (P. berghei; 4 × 30 mg/kg, oral): ~10 days

- IC50 (β-hematin): 3.5 µM
SMILES: Clc1ccc2c(NCCCN3CCN(C(c4ccccc4)c4ccccc4)CC3)ccnc2c1 [Compound 5, N-(3-(4-Benzhydrylpiperazin-1-yl)propyl)-7-chloroquinolin-4-amine]
- IC50 [3]: 1.1 µM

SMILES: Clc1ccc2c(NCCCN3CCCN(C(c4ccccc4)c4ccccc4)CC3)ccnc2c1 [Compound 6, N-(3-(4-Benzhydryl-1,4-diazepan-1-yl)propyl)-7-chloroquinolin-4-amine]
- IC50 [3]: 0.7 µM

SMILES: Clc1ccc(C(c2ccccc2)N2CCN(CCNc3ccnc4cc(Cl)ccc34)CC2)cc1 (stereo not shown) [Compound 7, 7-Chloro-N-(2-(4-((4-chlorophenyl)(phenyl)methyl)piperazin-1-yl)ethyl)quinolin-4-amine]
- IC50 [3]: 1.4 µM

SMILES: Clc1ccc(C(c2ccccc2)N2CCN(CCCNc3ccnc4cc(Cl)ccc34)CC2)cc1 (stereo not shown) [Compound 8, 7-Chloro-N-(3-(4-((4-chlorophenyl)(phenyl)methyl)piperazin-1-yl)propyl)quinolin-4-amine]
- IC50 [3]: 0.8 µM

SMILES: Clc1ccc(C(c2ccccc2)N2CCCN(CCCNc3ccnc4cc(Cl)ccc34)CC2)cc1 (stereo not shown) [Compound 9, 7-Chloro-N-(3-(4-((4-chlorophenyl)(phenyl)methyl)-1,4-diazepan-1-yl)propyl)quinolin-4-amine]
- IC50 [3]: 0.9 µM

SMILES: Fc1ccc(C(c2ccc(F)cc2)N2CCN(CCCNc3ccnc4cc(Cl)ccc34)CC2)cc1 [Compound 10, N-(3-(4-(Bis(4-fluorophenyl)methyl)piperazin-1-yl)propyl)-7-chloroquinolin-4-amine]
- IC50 [3]: 4.1 µM

SMILES: Clc1ccc2c(NCCN3CCCN(C4c5ccccc5-c5ccccc54)CC3)ccnc2c1 [Compound 11, N-(2-(4-(9H-Fluoren-9-yl)-1,4-diazepan-1-yl)ethyl)-7-chloroquinolin-4-amine]
- IC50 [3]: 2.5 µM

SMILES: Clc1ccc2c(NCCCN3CCCN(C4c5ccccc5-c5ccccc54)CC3)ccnc2c1 [Compound 12, N-(3-(4-(9H-Fluoren-9-yl)-1,4-diazepan-1-yl)propyl)-7-chloroquinolin-4-amine]
- IC50 [3]: 2.5 µM

- IC50 (β-hematin): 10 µM
SMILES: CN(CCCN1c2ccccc2CCc2ccccc21)CCNc1ccnc2cc(Cl)ccc12 [Compound 13, N^1-(7-chloroquinolin-4-yl)-N^2-(3-(10,11-dihydro-5H-dibenzo[b,f]azepin-5-yl)propyl)-N^2-methylethane-1,2-diamine]
- IC50 [3]: 1.4 µM

SMILES: Clc1ccc2c(NCCCN3CCN(C(c4ccccc4)(c4ccccc4)c4ccccc4)CC3)ccnc2c1 [Compound 15, 7-Chloro-N-(3-(4-tritylpiperazin-1-yl)propyl)quinolin-4-amine]
- β-hematin inhibition (µM) (β-hematin; IC50, 40 µM heme, acetate pH 4.8, Tween20, 24 hours at 37°C): insoluble
- Mouse survival (days) (P. berghei; subcutaneous): Mice euthanized day 3
- mice cured (P. berghei; 4 × 30 mg/kg, oral, parasite-free on day 30 post-infection): 1/3

- IC50 (β-hematin): 14 µM
SMILES: Clc1ccc2c(NCCCN3CCN(C4C5CC6CC(C5)CC4C6)CC3)ccnc2c1 (stereo not shown) [Compound 17, N-(3-(4-(Adamant-2-yl)piperazin-1-yl)propyl)-7-chloroquinolin-4-amine]

- IC50 (β-hematin): ~2 µM and 2 µM
SMILES: Clc1ccc2c(NCCN3CCC(NC(c4ccccn4)c4ccccn4)CC3)ccnc2c1 [Compound 21, 7-Chloro-N-(2-(4-(dipyridin-2-ylmethylamino)piperidin-1-yl)ethyl)quinolin-4-amine]
- mice cured (P. berghei; second trial, 4 × 44 mg/kg, oral (equimolar to 30 mg/kg CQ)): 3 out of 3 and 3/3

SMILES: Clc1ccc2c(NCCCN3CCC(NC(c4ccccn4)c4ccccn4)CC3)ccnc2c1 [Compound 22, 7-Chloro-N-(3-(4-(dipyridin-2-ylmethylamino)piperidin-1-yl)propyl)quinolin-4-amine]
- IC50 (P. falciparum Dd2 (CQR)): 1.6 nM
- IC50 (β-hematin): 1.6 µM
- hemozoin formation by microscopy ([4]; 10 nM drug): appeared to preclude hemozoin formation
- hemozoin formation by microscopy ([5]; 10 nM drug, 24 hours): appeared to preclude hemozoin formation
- signs of toxicity in mice [6]: no obvious signs of toxicity
- mice cured (P. berghei; 4 × 30 mg/kg, oral, parasite-free on day 30 post-infection, 30 mg/kg): two of the three and 2/3
- mice cured (P. berghei; second trial, 4 × 46 mg/kg, oral (equimolar to 30 mg/kg CQ)): 9 out of 10 and 9/10

- Kd [µM (app)] [7]: no activity
SMILES: OCCN1CCN(C(c2ccccc2)c2ccccc2)CC1 [Compound 26, 2-(4-Benzhydrylpiperazin-1-yl)ethanol]
